# Source: patent publication US20120115852A1, “HETEROCYCLIC COMPOUNDS AS AUTOTAXIN INHIBITORS” (Merck Patent Gesellschaft Mit Beschrankter Haftung, priority 2009, published 2012)
# Molecular target: T1, recombinant autotaxin (Homo sapiens, UniProt Q13822)
# T1 construct: made in house; host or cells: Hi5 insect cells (baculovirus)
# Assay: Autotaxin test (enzyme test), Amplex Red fluorescence with LPC substrate
# Type: biochemical
# Settings: autotaxin inhibition (enzyme test); for remaining activity at 10 µM: 10 μM compound, read-out: % Control at 10 μM
# Method in brief: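 Activity was inferred from H2O2 made from released choline, detected as Amplex Red/peroxidase fluorescence (485 nm excitation, 612 nm emission, kinetic read). Beforehand, Hi5-expressed autotaxin sat with compound 30 min at 22° C, then hydrolysed 75 μM final LPC for 90 min at 37° C, pH 8 Tris buffer.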
remaining activity at 10 µM [%],IC50 [nM],SMILES
-13,100 to 1000,"CC(C)(C)CC(=O)N1CCN2C(=O)c3cc(-c4ccc(Cl)c(Cl)c4)ccc3NC(=O)C2C1 (stereo not drawn) [Compound A104, 7-(3,4-Dichlorophenyl)-2-(3,3-dimethylbutyryl)-1,3,4,11a-tetrahydro-2H,10H-2,4a,10-triaza-dibenzo[a,d]cycloheptene-5,11-dione]"
22,> 1000,"Cc1ccc(-c2ccc3c(c2)C(=O)N2CCN(C(=O)CC(C)(C)C)CC2C(=O)N3)cc1 (stereo not drawn) [Compound A105, 2-(3,3-Dimethylbutyryl)-7-p-tolyl-1,3,4,11a-tetrahydro-2H,10H-2,4a,10-triaza-dibenzo[a,d]cycloheptene-5,11-dione]"
-37,100 to 1000,"O=C1Nc2ccc(-c3ccc(Cl)cc3)cc2C(=O)N2CCN(C(=O)C3(c4ccccc4)CCCC3)CC12 (stereo not drawn) [Compound A106, 7-(4-Chlorophenyl)-2-(1-phenylcyclopentane-carbonyl)-1,3,4,11a-tetrahydro-2H,10H-2,4a,10-triazadibenzo[a,d]cycloheptene-5,11-dione]"
51,> 1000,"CN1CCC(C)(C(=O)N2CCN3C(=O)c4cc(-c5ccc(Cl)cc5)ccc4NC(=O)C3C2)CC1 (stereo not drawn) [Compound A107, 7-(4-Chlorophenyl)-2-(1,4-dimethylpiperidine-4-carbonyl)-1,3,4,11a-tetrahydro-2H,10H-2,4a,10-triazadibenzo[a,d]cycloheptene-5,11-dione]"
90,–,"Cn1cc(-c2ccc3c(c2)C(=O)N2CCN(C(=O)CC(C)(C)C)CC2C(=O)N3)cn1 (stereo not drawn) [Compound A108, 2-(3,3-Dimethylbutyryl)-7-(1-methyl-1H-pyrazol-4-yl)-1,3,4,11a-tetrahydro-2H,10H-2,4a,10-triaza-dibenzo[a,d]cycloheptene-5,11-dione]"
-21,> 1000,"CC(C)(C)C(=O)N1CCN2C(=O)c3cc(-c4ccc(Cl)cc4)ccc3NC(=O)C2C1 (stereo not drawn) [Compound A109, 7-(4-Chlorophenyl)-2-(2,2-dimethylpropionyl)-1,3,4,11a-tetrahydro-2H,10H-2,4a,10-triaza-dibenzo[a,d]cycloheptene-5,11-dione]"
51,> 1000,"O=C1Nc2ccc(-c3ccc(Cl)cc3)cc2C(=O)N2CCN(C(=O)C3CCCN3C(=O)c3ccncc3)CC12 (stereo not drawn) [Compound A110, 7-(4-Chlorophenyl)-2-[1-(pyridine-4-carbonyl)-pyrrolidine-2-carbonyl]-1,3,4,11a-tetrahydro-2H,10H-2,4a,10-triazadibenzo[a,d]cycloheptene-5,11-dione]"
3,> 1000,"O=C1Nc2ccc(-c3ccc(Cl)cc3)cc2C(=O)N2CCN(C(=O)C3CCCN3C(=O)Nc3ccc(Cl)cc3)CC12 (stereo not drawn) [Compound A111, N-(4-Chlorophenyl)-2-[7-(4-chlorophenyl)-5,11-dioxo-3,4,5,10,11,11a-hexahydro-1H-2,4a,10-triaza-dibenzo[a,d]cycloheptene-2-carbonyl]pyrrolidine-1-carboxamide]"
5,> 1000,"O=C1Nc2ccc(-c3ccc(Cl)cc3)cc2C(=O)N2CCN(C(=O)[C@H](O)C3CCCCC3)CC12 (stereo partly drawn) [Compound A112, 7-(4-Chlorophenyl)-2-((R)-2-cyclohexyl-2-hydroxy-acetyl)-1,3,4,11a-tetrahydro-2H,10H-2,4a,10-triazadibenzo[a,d]cycloheptene-5,11-dione]"
-6,> 1000,"O=C1Nc2ccc(-c3ccc(Cl)cc3)cc2C(=O)N2CCN(C(=O)[C@@H](O)C3CCCCC3)CC12 (stereo partly drawn) [Compound A113, 7-(4-Chlorophenyl)-2-((S)-2-cyclohexyl-2-hydroxy-acetyl)-1,3,4,11a-tetrahydro-2H,10H-2,4a,10-triazadibenzo[a,d]cycloheptene-5,11-dione]"
28,> 1000,"O=C1Nc2ccc(-c3ccc(Cl)cc3)cc2C(=O)N2CCN(C(=O)[C@@H]3CCCN3)CC12 (stereo partly drawn) [Compound A114, 7-(4-Chlorophenyl)-2-((S)-pyrrolidine-2-carbonyl)-1,3,4,11a-tetrahydro-2H,10H-2,4a,10-triaza-dibenzo[a,d]cycloheptene-5,11-dione]"
80,> 1000,"CN(C)CCN1CCC[C@H]1C(=O)N1CCN2C(=O)c3cc(-c4ccc(Cl)cc4F)ccc3NC(=O)C2C1 (stereo partly drawn) [Compound A115, 7-(4-Chloro-2-fluorophenyl)-2-[(S)-1-(2-dimethyl-aminoethyl)pyrrolidine-2-carbonyl]-1,3,4,11a-tetrahydro-2H,10H-2,4a,10-triaza-dibenzo[a,d]cycloheptene-5,11-dione]"
71,> 1000,"CC(=O)N1CCN2C(=O)c3cc(-c4ccc(Cl)cc4F)ccc3NC(=O)[C@H]2C1 [Compound A116, (R)-2-Acetyl-7-(4-chloro-2-fluorophenyl)-1,3,4,11a-tetrahydro-2H,10H-2,4a,10-triaza-dibenzo[a,d]cycloheptene-5,11-dione]"
16,> 1000,"O=C1Nc2ccc(-c3ccc(Cl)cc3F)cc2C(=O)N2CCN(C(=O)[C@@H]3CCCN3C3CCNCC3)C[C@H]12 [Compound A117, (R)-7-(4-Chloro-2-fluorophenyl)-2-((S)-1-piperidin-4-ylpyrrolidine-2-carbonyl)-1,3,4,11a-tetrahydro-2H,10H-2,4a,10-triazadibenzo[a,d]cycloheptene-5,11-dione]"
8,100 to 1000,"CN1CCC(N2CCC[C@H]2C(=O)N2CCN3C(=O)c4cc(-c5ccc(Cl)cc5F)ccc4NC(=O)[C@H]3C2)CC1 [Compound A118, (R)-7-(4-Chloro-2-fluorophenyl)-2-[(S)-1-(1-methylpiperidin-4-yl)pyrrolidine-2-carbonyl]-1,3,4,11a-tetrahydro-2H,10H-2,4a,10-triaza-dibenzo[a,d]cycloheptene-5,11-dione]"
45,> 1000,"NCCN1CCC[C@H]1C(=O)N1CCN2C(=O)c3cc(-c4ccc(Cl)cc4F)ccc3NC(=O)[C@H]2C1 [Compound A119, (R)-2-[(S)-1-(2-Aminoethyl)pyrrolidine-2-carbonyl]-7-(4-chloro-2-fluorophenyl)-1,3,4,11a-tetrahydro-2H,10H-2,4a,10-triazadibenzo[a,d]cycloheptene-5,11-dione]"
8,100 to 1000,"O=C1Nc2ccc(-c3ccc(Cl)cc3F)cc2C(=O)N2CCN(C(=O)[C@@H]3CCCN3C3CCOCC3)C[C@H]12 [Compound A120, (R)-7-(4-Chloro-2-fluorophenyl)-2-[(S)-1-(tetrahydro-pyran-4-yl)pyrrolidine-2-carbonyl]-1,3,4,11a-tetra-hydro-2H,10H-2,4a,10-triazadibenzo[a,d]-cycloheptene-5,11-dione]"
32,> 1000,"O=C1Nc2ccc(-c3ccc(Cl)cc3F)cc2C(=O)N2CCN(C(=O)[C@@H]3CCCN3C3CCCCC3)C[C@H]12 [Compound A121, (R)-7-(4-Chloro-2-fluorophenyl)-2-((S)-1-cyclohexyl-pyrrolidine-2-carbonyl)-1,3,4,11a-tetrahydro-2H,10H-2,4a,10-triazadibenzo[a,d]cycloheptene-5,11-dione]"
69,–,"N[C@@H](CO)C(=O)N1CCN2C(=O)c3cc(-c4ccc(Cl)cc4F)ccc3NC(=O)[C@H]2C1 [Compound A122, (R)-2-((S)-2-Amino-3-hydroxypropionyl)-7-(4-chloro-2-fluorophenyl)-1,3,4,11a-tetrahydro-2H,10H-2,4a,10-triazadibenzo[a,d]cycloheptene-5,11-dione]"
6,100 to 1000,"O=C1Nc2ccc(-c3ccc(Cl)cc3F)cc2C(=O)N2CCN(C(=O)[C@@H]3CCCN3C3CCCNC3)C[C@H]12 (stereo partly drawn) [Compound A123, (R)-7-(4-Chloro-2-fluorophenyl)-2-((S)-1-piperidin-3-ylpyrrolidine-2-carbonyl)-1,3,4,11a-tetrahydro-2H,10H-2,4a,10-triazadibenzo[a,d]cycloheptene-5,11-dione]"
39,> 1000,"COC[C@H](N)C(=O)N1CCN2C(=O)c3cc(-c4ccc(Cl)cc4F)ccc3NC(=O)[C@H]2C1 [Compound A124, (R)-2-((S)-2-Amino-3-methoxypropionyl)-7-(4-chloro-2-fluorophenyl)-1,3,4,11a-tetrahydro-2H,10H-2,4a,10-triazadibenzo[a,d]cycloheptene-5,11-dione]"
25,> 1000,"CC(C)(C)CC(=O)N1CCN2C(=O)c3cc(-c4ccc(Cl)cc4F)ccc3NC(=O)[C@@H]2C1 [Compound A125, (S)-7-(4-Chloro-2-fluorophenyl)-2-(3,3-dimethyl-butyryl)-1,3,4,11a-tetrahydro-2H,10H-2,4a,10-triazadibenzo[a,d]cycloheptene-5,11-dione]"
20,> 1000,"O=C1Nc2ccc(-c3ccc(Cl)cc3F)cc2C(=O)N2CCN(C(=O)[C@@H]3CCCN3C3CCNCC3)C[C@@H]12 [Compound A126, (S)-7-(4-Chloro-2-fluorophenyl)-2-((S)-1-piperidin-4-ylpyrrolidine-2-carbonyl)-1,3,4,11a-tetrahydro-2H,10H-2,4a,10-triazadibenzo[a,d]cycloheptene-5,11-dione]"
42,> 1000,"CC(C)(C)CC(=O)N1CCN2C(=O)c3cc(-c4ccc(Cl)nc4)ccc3NC(=O)C2C1 (stereo not drawn) [Compound A128, 7-(6-Chloropyridin-3-yl)-2-(3,3-dimethylbutyryl)-1,3,4,11a-tetrahydro-2H,10H-2,4a,10-triaza-dibenzo[a,d]cycloheptene-5,11-dione]"
6,> 1000,"CC(C)(C)CC(=O)N1CCN2C(=O)c3cc(-c4ccc(Cl)s4)ccc3NC(=O)C2C1 (stereo not drawn) [Compound A129, 7-(5-Chlorothiophen-2-yl)-2-(3,3-dimethylbutyryl)-1,3,4,11a-tetrahydro-2H,10H-2,4a,10-triaza-dibenzo[a,d]cycloheptene-5,11-dione]"
